Laboratory results as given in article PMC5193077, “An Allosteric Potentiator of the Dopamine D1 Receptor Increases Locomotor Activity in Human D1 Knock-In Mice without Causing Stereotypy or Tachyphylaxis” (The Journal of Pharmacology and Experimental Therapeutics, 2017).
Structures can show the parent of a compound that is named as a salt.

Key:
hD1 mice [1] = assay: Locomotor activity (LMA) in hD1 mice; type: in vivo, mouse; conditions: hD1 mice; for Shape of LMA dose-response curve: DETQ up to 240 mg/kg
Description: Male hD1 mice, 8–10 weeks old (weighing 18 to 25 g at the time of the experiment), were used. Monitoring of mouse LMA took place in transparent plastic shoebox cages having dimensions of 45 × 25 × 20 cm, with a 1-cm depth of wood chips for absorbent bedding, and covered with a ventilated filtered plastic cage top.
Cages were placed in a rectangular frame containing a grid of 12 photocell beams in an 8 × 4 configuration (Kinder Scientific, Poway, CA) that were positioned 2.5 cm from the floor of the cage for the detection of body movements (ambulations), which were recorded by computer for analysis. Mice were placed inside individual LMA boxes for 1 hour during an acclimation period. Mice were then dosed with test compounds (oral or subcutaneous) and were replaced inside individual LMA boxes for the start of LMA. Photocell activity (total ambulations) was collected for 60 minutes using software from Hamilton Kinder (Poway, CA).
Calculation of data based on total ambulations was done using Excel (Microsoft, Redmond, WA). Graphing and statistical analysis of data were done using one-way analysis of variance followed by Dunnett’s multiple comparison test using GraphPad Prism.

hD1 mice [2] = assay: Video-tracking of horizontal motion, rearing and grooming in hD1 mice; type: in vivo, mouse
Description: The apparatus for the video-tracking assessment experiment included 12 custom-built video-tracking observation chambers and the HomeCageScan (CleverSys, Reston, VA) software system. The chambers, measuring (in inches) 8 width × 10 length × 8 height, consisted of two end walls, a back wall, a top, and a floor constructed of ¼-in. translucent white acrylic, and one side (front) constructed of clear acrylic. LED strip lighting was placed below the chamber for illumination. A color video camera (640 × 480, 30 frames per second) was placed in front of each chamber to record behavior from a side view. The chambers were located in large sound-attenuating chambers to reduce ambient room noise and isolate lighting. The cameras were connected in groups of four to a quad multiplexer (model NVQC-42N; Nuvico, Englewood, NJ), with each multiplexer connected to its own computer, which then recorded each session to an MPEG file.
At the end of the experiment the files were batch-analyzed by a computer running the CleverSys CageScan video-tracking software. This software can recognize and quantify several different behaviors, including LMA, grooming, rearing, immobility, and feeding behaviors. The current experiment examined behavior in a novel open-field environment rather than home-cage activity, which limited behaviors of interest to LMA, grooming, and rearing.
For HomeCageScan behavioral phenotyping, male D1 knock-in mice (8–12 weeks, 20–25 g body weight) were placed into the observation chambers for a 60-minute habituation session. […] All behavioral activity was monitored and scored by the HomeCageScan system.

human D1 receptor [3] = molecular target: T1, human D1 receptor (Homo sapiens, UniProt P21728); assay: cAMP response in HEK293 cells stably expressing the human D1 receptor; type: cell-based; conditions: with 12 nM dopamine; % of window between EC20 dopamine and maximum dopamine response
human D1 receptor [4] = molecular target: T1, human D1 receptor; assay: D1 receptor internalization (PathHunter, DiscoveRx)
hD1 and wild-type mice = assay: Seizure observation in mice; type: in vivo, mouse; conditions: higher doses, unpublished observation
hD1 mice [5] = assay: Locomotor activity (LMA) in hD1 mice; type: in vivo, mouse; conditions: nonhabituated hD1 mice, 30 min pretreatment
[6] = with EC20 dopamine, 0% = EC20 dopamine response, 100% = maximum dopamine response

T1 sequence (P21728 whole entry): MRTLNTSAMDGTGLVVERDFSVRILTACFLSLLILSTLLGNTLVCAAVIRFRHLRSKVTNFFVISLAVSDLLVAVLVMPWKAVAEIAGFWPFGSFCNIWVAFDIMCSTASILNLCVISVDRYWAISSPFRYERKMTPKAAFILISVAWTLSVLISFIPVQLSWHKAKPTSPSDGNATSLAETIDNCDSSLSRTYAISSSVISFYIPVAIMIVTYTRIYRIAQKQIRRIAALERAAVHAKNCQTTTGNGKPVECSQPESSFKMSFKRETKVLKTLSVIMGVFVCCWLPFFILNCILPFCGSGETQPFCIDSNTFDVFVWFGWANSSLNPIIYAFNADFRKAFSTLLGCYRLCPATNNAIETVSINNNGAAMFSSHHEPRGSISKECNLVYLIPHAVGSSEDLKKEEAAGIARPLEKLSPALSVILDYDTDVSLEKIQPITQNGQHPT

## Oc1cc2c(cc1O)[C@H]1c3ccccc3CN[C@@H]1CC2 (racemic) [dihydrexidine, reference compound]
hD1 mice [1]
  Shape of LMA dose-response curve: bell-shaped curves

## Cl.NC[C@@H]1O[C@H](C23CC4CC(CC(C4)C2)C3)Cc2c1ccc(O)c2O [A-77636, (1R)-3-(1-adamantyl)-1-(aminomethyl)-3,4-dihydro-1H-isochromene-5,6-diol;hydrochloride, reference compound]
hD1 mice [2]
  Horizontal locomotion and rearing: increase in horizontal locomotion and rearing at lower doses
Human D1 receptor [3]
  Top, cAMP, potentiator mode: 121.0%
hD1 mice [1]; once daily for 4 days
  LMA response on repeated once-a-day dosing: completely abolished by day 2
hD1 mice [1]
  Shape of LMA dose-response curve: bell-shaped curves
Human D1 receptor [4]; RA for cAMP divided by RA for internalization
  Pathway Preference cAMP/Internalization: 6.6
Human D1 receptor [4]; top divided by EC50, with 407 nM dopamine
  RA, Internalization: 7.78
Human D1 receptor [4]; [6]
  Bottom, D1 receptor internalization: −12.8%
  Top, D1 receptor internalization: 112.0%

## CCCc1cc2c(s1)CN[C@@H]1CCc3cc(OC(C)=O)c(OC(C)=O)cc3[C@@H]21 [ABT-431, adrogolide hydrochloride]
hD1 and wild-type mice
  Seizures: induced seizures

## CN1CCc2cc(Cl)c(O)cc2[C@H]2c3ccccc3CC[C@@H]21 [SCH39166, (6aS,13bR)-11-chloro-7-methyl-5,6,6a,8,9,13b-hexahydronaphtho[1,2-a][3]benzazepin-12-ol]
hD1 mice [5]
  Dose that lowered DETQ-stimulated activity: 0.03 mg/kg
  Dose that lowered basal exploratory activity: 0.01 mg/kg

## C=CCN1CCc2c(cc(O)c(O)c2Cl)C(c2ccccc2)C1 (stereo not drawn) [SKF 82958, 9-chloro-5-phenyl-3-prop-2-enyl-1,2,4,5-tetrahydro-3-benzazepine-7,8-diol]
hD1 mice [2]
  Grooming (index of stereotyped behavior): supplanted by grooming at higher doses
  Horizontal locomotion and rearing: increase in horizontal locomotion and rearing at lower doses
hD1 mice [1]
  Shape of LMA dose-response curve: bell-shaped curves
